Data on four molecules can be found in patent US12220420B2, “Combination therapy for cancer treatment” (Galera Labs, LLC, priority 2016, dated 2025).

Experiment [1] concerns Subcutaneous H1299 tumors. Description: Non-small cell lung cancer tumor xenograft model with or without radiation. In kind it is in vivo. The procedure: The effect of the pentaaza macrocyclic ring complex GC4419 was tested in vivo on non-small cell lung cancer (NSCLC) in a tumor xenograft model. Subcutaneous H1299 tumors were subjected to biologically equivalent fractionation schemes of 18 Gy×1 dose or 2 Gy×16 doses (delivered on consecutive days), 1 hour following an initial injection of 24 mg/kg GC4419. GC4419 was also administered on the next 4 consecutive days after the first injection (given, in the case of the 2 Gy fraction dose experiment, 1 hour prior to each of those 4 days' radiation treatments).

The subject of the next experiment is H1299 cancer cells. Description: Clonogenic assay of FIG. 4, normalized surviving fraction. In kind it is cell-based, human. The note with it: 20 μM GC4419, FIG. 4, control also about 1. The procedure: The effect of the pentaaza macrocyclic ring complex GC4419 in combination with inhibitors of hydrogen peroxide metabolism was tested on breast cancer cells (MB231) and non-small cell lung cancer cells (H1299) versus normal cells (HMEC normal mammary epithelial cells and HBEpC normal bronchial epithelial cells). The cells were plated and grown exponentially for 2 days. Either or both of 20 μM of the CG4419 compound and 100 μM BSO were added at time 0 of exposure, and 500 nM Auranofin (a thioredoxin reductase inhibitor) was added 48 hours after, for 15 minutes prior to a clonogenic assay.

Experiment [2] relates to lung cancer cells (H1299). Description: 3-aminotriazole mediated inactivation of catalase (H2O2 flux). The note with it: 20 μM GC4419, H1299. The experiment is classed as cell-based, human. The method, then:
(§1) The effect of the pentaaza macrocyclic ring complex GC4419 in increasing levels of H2O2 in cancer cells was further tested by measuring the 3-aminotriazole mediated inactivation of catalase, using a method as described in Ahmad et al, J. Biol Chem, 280(6), 4254-4263 (2005). Briefly, head and neck cancer cells (Cal27), lung cancer cells (H1299) and breast cancer cells (MB231) were grown in 60 mm dishes, transduced with 50 MOI adCat to genetically increase catalase expression, and allowed 48 hours to recover so that the activity of catalase could increase to maximal levels. Afterwards, 50 mM AT was added for 5 minutes, which irreversibly binds to and inhibits the catalase intermediate formed in the presence of H2O2. 20 μM GC4419 was added, and cells were collected at 10 minute intervals for 60 minutes, and the inhibition of catalase was determined. A Lowry's protein assay determined the total protein concentration of individual samples. This method provides a stoichiometry of one catalase molecule being inhibited for each molecule of H2O2, thereby providing for precise measurements of changes in H2O2 flux. The results are shown in FIG. 3 (left hand side is Cal27, middle is H1299, and right hand side is MB231).

Experiment [3] concerns breast cancer cells (MB231). The description is as above. In kind it is cell-based, human. The note with it: 20 μM GC4419, MB231. The procedure: as §1
For experiment [4] the following is noted: Tuder et al. 2003; cited from earlier work.
Another experiment concerns HN5 (HNSCC) tumors. Description: Animal model of squamous cell carcinoma of the head and neck with or without radiation. The experiment is classed as in vivo. The procedure: The effect of GC4419 was tested in vivo on animal models of squamous cell carcinoma of the head and neck (HNSCC). GC4419 was delivered as a 24 mg/kg daily dose delivered as an ip bolus on 5 consecutive days starting 1 hour prior to irradiation. Radiation was delivered as a single dose of 12 Gy using a 10 mm collimated beam aimed at the center of the tumor.

For experiment [5] the following is noted: Anderson 2015; cited from earlier work.
The test system of experiment [6] is human lung cancer cells (H292). Description: PeroxyOrange-1 (PO-1) oxidation as a measure of steady-state H2O2. The experiment is classed as cell-based. The procedure:
The effects on H2O2 fluxes of a pentaaza macrocyclic ring complex (GC4419) provided in combination with inhibitors of H2O2 metabolism were tested in human lung cancer cells (H292). The H292 cells were treated with 20 μM GC4419 for 3 and 24 hours, and PeroxyOrange-1 (PO-1) oxidation was monitored as a measure of steady-state H2O2. […] Also, the combination of GC4419+BSO+AT for 3 hours (B-AT 4419 3) and 24 hours (B-AT 4419 24) further increased PO-1 oxidation to 3-fold greater than a control. The PO-1 oxidation was also monitored in dosing the cells three times with 100 μM hydrogen peroxide (H2O2).

Experiment [7] deals with Breast cancer cells (MB231) and lung cancer cells (H1299). Description: Clonogenic killing in presence and absence of N-acetylcysteine (NAC). In kind it is cell-based, human. The note with it: 10 mM of NAC; 20 μM GC4419, 100 μM BSO, 500 nM Au. The method, then: Breast cancer cells (MB231) and lung cancer cells (H1299) were grown in culture to 75% confluence and treated with either 20 μM GC4419, or 100 μM BSO with 500 nM Au added after 48 hours, or all of GC4419, BSO and Au. The cancer cells were also treated with the same sets of compounds, but with the further addition of 10 mM of NAC. […] Thus, the results support that pentaaza macrocyclic ring complexes such as GC4419 combined with inhibitors of hydrogen peroxide metabolism can selectively kill cancer cells versus normal cells via oxidative stress correlated with increase H2O2 fluxes.

For another experiment, the system named is lung cancer cells (H292). Description: Total glutathione levels, DTNB recycling spectrophotometric assay. The note with it: 50 μM or 100 μM BSO, 24 hours. The experiment is classed as cell-based, human. The procedure:
(§2) The effect of buthionine sulfoximine (BSO) on reduced glutathione (GSH) levels in breast cancer cells (MB231) and lung cancer cells (H292) was examined. The cells were plated and grown to 75% confluency, then treated with either 50 μM BSO or 100 μM BSO for another 24 hours before harvesting for analysis for total glutathione levels using a DTNB recycling spectrophotometric assay.

Experiment [8] relates to breast cancer cells (MB231). Described as above. The experiment is classed as cell-based, human. The note with it: 50 μM or 100 μM BSO, 24 hours. The procedure:
as §2

In experiment [9] the test system is Non-small cell lung cancer cells (H1299). Description: Clonogenic cell survival assay, auranofin alone and with ionizing radiation. The experiment is classed as cell-based, human. The procedure: The effects of an inhibitor of hydrogen peroxide metabolism, auranofin (a thioredoxin reductase inhibitor), on cancer cells was tested in a clonogenic cell survival assay to determine the effects of the compound alone and in combination with ionizing radiation. Non-small cell lung cancer cells (H1299) were exponentially grown and treated with auranofin (Au) either by itself for 15 minutes, or 15 minutes prior to the first of two ionizing radiation (IR) doses (2 Gy each) spaced 24 hours apart. After the last ionizing radiation dose, the cells were trypsinized, counted, replated at varying lower densities and incubated for 12 days. Plates were stained and counted for clonogenic survival assays. […] Furthermore, treatment with auranofin sensitized the cancer cells to radiation, thereby increasing the efficiency of the ionizing radiation in cell killing (Auranofin+IR) as compared to administration of ionizing radiation alone (IR 4 Gy).

[10] abbreviates: 24 mg/kg GC4419, 5 consecutive days.
Where [11] appears, read: 24 mg/kg daily ip bolus, 5 consecutive days.

As to `[Cl][Mn][Cl].c1cc2nc(c1)CN[C@H]1CCCC[C@@H]1NCCN[C@H]1CCCC[C@@H]1NC2` [GC4419], in [1] (24 mg/kg GC4419 1 hour before 18 Gy×1 or 2 Gy×16), the “response of NSCLC tumors to radiation” value was “significantly enhancing radiation induced growth delay, and survival”. For the same molecule, the “anti-cancer effect, cancer size as compared to the control” value in [1] (setting [10]) was “reduced cancer size”. Also, in experiment [1] (setting [10]), the “survival as compared to the control” value is given as “improved survival”. Moreover, the “normalized surviving cell fraction (on a log scale)” value in the experiment on H1299 cancer cells is on record as “about 1”. For the same molecule, the “steady-state levels of intracellular H2O2 flux, normalized to the control” value in experiment [2] and in experiment [3] was “significant increases” each time. Also, the “VEGFr inhibitor-induced pulmonary disease” value in experiment [4] is “attenuate VEGFr inhibitor-induced pulmonary disease”. The tumor growth entry in the experiment on HN5 (HNSCC) tumors (setting [11]) is reported as “significant growth delay”. The “tumor volumes as compared to a control” value in the experiment with HN5 (HNSCC) tumors (setting [11]) is “reduced tumor volumes”. The “tumor growth, combination with radiation” value with HN5 (HNSCC) tumors (24 mg/kg daily ×5 starting 1 hour prior to single dose of 12 Gy) was “even greater growth delays”. Besides, the oral mucositis entry in experiment [5] is “reduce oral mucositis”. The “increase in PO-1 oxidation as compared to the control” value is on record as 1.5 fold in [6] (20 μM GC4419, 3 hours) and 1.5 fold in experiment [6] (20 μM GC4419, 24 hours).
In the case of `CC(=O)N[C@@H](CS)C(=O)O` [NAC, N-acetylcysteine], the “effect of NAC on cell killing caused by GC4419+Au and/or BSO” value in [7] is given as “nearly completely inhibited the cell killing”.
On to `CCCCS(=N)(=O)CCC(N)C(=O)O` (stereo not shown) [BSO, buthionine sulfoximine], for which the glutathione levels entry (in the experiment on lung cancer cells (H292); in [8]) was “significantly decreases” throughout.
Take `CC(=O)OCC1OC([S-])C(OC(C)=O)C(OC(C)=O)C1OC(C)=O.CCP(CC)CC.[Au+]` (stereo not shown) [auranofin, gold(+1)cation; 3,4,5-triacetyloxy-6-(acetyloxymethyl)oxane-2-thiolate; triethylphosphanium]: the “normalized surviving cell fraction” value in [9] (250 nM of auranofin, FIG. 6) is given as “over 0.5”. Also, in experiment [9] (250 nM, 15 minutes), the “cell killing as compared to a control” value was “significant cell killing”. The “response of cancer cells to ionizing radiation” value in experiment [9] (15 minutes prior to first of two IR doses (2 Gy each), versus IR 4 Gy alone) is recorded as “significantly increases”.
